Measurements taken from patent US10633338B2, “Binding Function 3 (BF3) site compounds as therapeutics and methods for their use” (THE UNIVERSITY OF BRITISH COLUMBIA, priority 2014, dated 2020).
Read-outs that look alike come from different tables or passages of the source.

Columns and labels:
androgen receptor (AR) = molecular target: T1, androgen receptor (AR) (Homo sapiens, UniProt P10275, T878A); test: eGFP cellular AR transcription assay; assay type: cell-based
T1 construct: stably transfected eGFP-expressing LNCaP human prostate cancer cells (LN-ARR2PB-eGFP) containing an androgen responsive probasin-derived promoter; endogenous in cells; host or cells: LNCaP (LN-ARR2PB-eGFP)
T1 sequence (P10275 1-920 T878A): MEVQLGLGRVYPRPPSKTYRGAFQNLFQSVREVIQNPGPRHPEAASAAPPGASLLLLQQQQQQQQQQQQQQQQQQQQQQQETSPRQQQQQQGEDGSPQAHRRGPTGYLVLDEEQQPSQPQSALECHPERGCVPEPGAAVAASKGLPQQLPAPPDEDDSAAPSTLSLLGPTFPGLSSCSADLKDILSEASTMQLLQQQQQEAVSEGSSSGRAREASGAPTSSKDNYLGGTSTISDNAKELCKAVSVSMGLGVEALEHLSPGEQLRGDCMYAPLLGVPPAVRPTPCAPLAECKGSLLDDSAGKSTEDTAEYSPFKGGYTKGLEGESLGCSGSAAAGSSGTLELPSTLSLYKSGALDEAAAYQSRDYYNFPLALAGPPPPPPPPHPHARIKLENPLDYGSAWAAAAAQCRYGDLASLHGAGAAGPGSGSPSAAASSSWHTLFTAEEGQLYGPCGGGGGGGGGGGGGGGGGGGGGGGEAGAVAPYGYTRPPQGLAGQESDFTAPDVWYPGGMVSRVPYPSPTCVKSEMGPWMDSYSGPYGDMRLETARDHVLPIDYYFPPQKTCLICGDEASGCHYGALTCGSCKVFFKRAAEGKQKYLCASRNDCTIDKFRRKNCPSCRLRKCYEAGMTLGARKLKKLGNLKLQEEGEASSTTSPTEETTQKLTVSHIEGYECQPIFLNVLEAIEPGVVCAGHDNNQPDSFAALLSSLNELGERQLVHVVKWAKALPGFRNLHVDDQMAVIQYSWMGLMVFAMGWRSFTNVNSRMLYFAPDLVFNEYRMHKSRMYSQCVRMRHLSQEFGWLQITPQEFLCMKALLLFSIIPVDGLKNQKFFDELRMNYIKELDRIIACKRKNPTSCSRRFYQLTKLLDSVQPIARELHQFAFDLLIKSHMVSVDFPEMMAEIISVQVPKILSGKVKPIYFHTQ
How it was run: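 AR transcriptional activity is read as eGFP expression from a probasin-derived androgen-responsive promoter. Compound titrated 0-100 μM in the presence of 0.1 nM R1881; 35,000 cells/well.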

PSA = test: Prostate Surface Antigen (PSA) assay, PSA excreted into the media; assay type: cell-based, human; details: same plates as eGFP assay
Method: The evaluation of PSA excreted into the media was performed in parallel to the eGFP assay using the same plates (see above description). After the cells were incubated for 3 days 150 μl of the media was taken from each well, and added to 150 μl of PBS.

[1] = LN-ARR2PBeGFP LNCaP cells, 0.1 nM R1881, 3 days incubation, read-out: eGFP IC50
[2] = Homo sapiens, 72 h, PSA excreted into media, 3 days incubation, read-out: PSA IC50
[3] = LN-ARR2PBeGFP LNCaP cells, 0.1 nM R1881, 3 days incubation
[4] = PSA excreted into media, 3 days incubation
[5] = PSA excreted into media, 3 days incubation, read-out: PSA IC50
[6] = LN-ARR2PB-eGFP LNCaP cells, 0.1 nM R1881, 3 days, 0-100 μM compound, read-out: IC50 (eGFP)
[7] = Homo sapiens, 72 h, media after 3 days, read-out: IC50 (PSA)
[8] = LN-ARR2PB-eGFP LNCaP cells, 0.1 nM R1881, 3 days, 0-100 μM compound

## Cc1cc(F)cc2c(-c3cnc4ccc(F)cc4n3)n[nH]c12 [Compound 13718]
Androgen receptor (AR); [1]
  IC50: 370 nM
PSA; [2]
  IC50: 110 nM

## Cc1cccc2c(C3=Nc4ccccc4CN3)c[nH]c12 [Compound 13604]
Androgen receptor (AR); [3]
  eGFP IC50: Inactive
PSA; [4]
  PSA IC50: Inactive

## N#C/C(=C\c1ccc(C(F)(F)F)cc1)c1c[nH]c2ccccc12 [Compound 13434]
Androgen receptor (AR); [1]
  IC50: 800 nM
PSA; [2]
  IC50: 730 nM

## CC1(C)c2ccccc2NC1c1c[nH]c2ncccc12 (centres unmarked) [Compound 13560]
Androgen receptor (AR); [1]
  IC50: 2300 nM
PSA; [5]
  IC50: 7500 nM

## Cc1ccc2ccc(-c3c[nH]c4c(C)c(F)ccc34)nc2c1 [Compound 13660]
Androgen receptor (AR); [1]
  IC50: 2500 nM
PSA; [2]
  IC50: 1890 nM

## c1ccc2ncc(-c3n[nH]c4ccccc34)cc2c1 [Compound 13684]
Androgen receptor (AR); [1]
  IC50: 1400 nM
PSA; [2]
  IC50: 6610 nM

## Cc1cc(-c2c[nH]c3c(C)cccc23)nc2ccccc12 [Compound 13594]
Androgen receptor (AR); [1]
  IC50: 166 nM
PSA; [2]
  IC50: 99 nM

## CC1(C)c2cc(Br)ccc2NC1c1cn(S(=O)(=O)C[C@]23CC[C@@H](CC2=O)C3(C)C)c2ccccc12 (some centres unmarked) [Compound 13524]
Androgen receptor (AR); [1]
  IC50: 4900 nM
PSA; [2]
  IC50: 6650 nM

## NC(=O)c1cccc2nc(-c3c[nH]c4c(Cl)cc(F)cc34)ccc12 [Compound 13746]
Androgen receptor (AR); [3]
  eGFP IC50: Inactive
PSA; [4]
  PSA IC50: Inactive

## Cc1ccc2ccc(-n3ccc4cccc(C)c43)nc2c1 [Compound 13649]
Androgen receptor (AR); [3]
  eGFP IC50: Inactive
PSA; [4]
  PSA IC50: Inactive

## Fc1ccc2c(-c3ccc4ccccc4n3)c[nH]c2c1 [Compound 13576]
Androgen receptor (AR); [1]
  IC50: 144 nM
PSA; [2]
  IC50: 48 nM

## Cc1cccc2c(-c3ccc4c(C#N)cccc4n3)c[nH]c12 [Compound 13598]
Androgen receptor (AR); [3]
  eGFP IC50: Inactive
PSA; [4]
  PSA IC50: Inactive

## Oc1cc2ccccc2cc1-c1nc2ccccc2[nH]1 [Compound 13687]
Androgen receptor (AR); [3]
  eGFP IC50: Inactive
PSA; [4]
  PSA IC50: Inactive

## c1ccc2nc(-c3c[nH]c4ccccc34)ccc2c1 [Compound 13562]
Androgen receptor (AR); [1]
  IC50: 60 nM
PSA; [2]
  IC50: 140 nM

## c1ccc2nc(-c3c[nH]c4ccccc34)ccc2c1 [13 562]
Androgen receptor (AR); [6]
  IC50: 60 nM
PSA; [7]
  IC50: 140 nM

## Cc1[nH]c2ccccc2c1SCc1ccccc1F [Compound 13411]
Androgen receptor (AR); [1]
  IC50: 2400 nM
PSA; [2]
  IC50: 2400 nM

## Cc1ccc(/N=N/c2c[nH]c3ccccc23)c(C)c1 [Compound 13423]
Androgen receptor (AR); [1]
  IC50: 1100 nM
PSA; [2]
  IC50: 1200 nM

## Cc1cccc2c(-c3ccc4c(Br)ccc(Br)c4n3)c[nH]c12 [Compound 13679]
Androgen receptor (AR); [3]
  eGFP IC50: Inactive
PSA; [4]
  PSA IC50: Inactive

## Cc1c(F)ccc2c(-c3ccc4ccc(F)cc4n3)c[nH]c12 [Compound 13646]
Androgen receptor (AR); [1]
  IC50: 179 nM
PSA; [2]
  IC50: 224 nM

## Clc1cccc2nc(-c3c[nH]c4ccccc34)ccc12 [Compound 13706]
Androgen receptor (AR); [3]
  eGFP IC50: Inactive
PSA; [4]
  PSA IC50: Inactive

## Cc1cccc2c(-c3cnc4cccnc4c3)c[nH]c12 [Compound 13662]
Androgen receptor (AR); [3]
  eGFP IC50: Inactive
PSA; [4]
  PSA IC50: Inactive

## Cc1cccc2c(-c3ccc4ncsc4c3)c[nH]c12 [13 757]
Androgen receptor (AR); [8]
  IC50 (eGFP): IC50 (eGFP) = Inactive
PSA; media after 3 days
  IC50 (PSA): IC50 (PSA) = Inactive

## Cc1ccc(Cl)c2c(-c3ccc4ccccc4n3)c[nH]c12 [Compound 13681]
Androgen receptor (AR); [1]
  IC50: 2500 nM
PSA; [2]
  IC50: 1700 nM

## CC1(C)c2ccccc2N(Cc2ccc(O)cc2)C1c1c[nH]c2ccccc12 (centres unmarked) [Compound 13525]
Androgen receptor (AR); [1]
  IC50: 3100 nM
PSA; [2]
  IC50: 7090 nM

## Cc1cccc2c(-c3ccc4ncsc4c3)c[nH]c12 [Compound 13757]
Androgen receptor (AR); [3]
  eGFP IC50: Inactive
PSA; [4]
  PSA IC50: Inactive

## Cc1ccc2[nH]cc(C3Nc4ccccc4C34CCCCC4)c2c1 (centres unmarked) [13 548]
Androgen receptor (AR); [6]
  IC50: 3200 nM
PSA; [7]
  IC50: 4240 nM

## Oc1cc2ccccc2nc1-c1c[nH]c2cc(F)c(F)cc12 [Compound 13629]
Androgen receptor (AR); [1]
  IC50: 4900 nM
PSA; [2]
  IC50: 1780 nM

## O=[N+]([O-])c1cccc2nc(-c3c[nH]c4c(Cl)cccc34)ccc12 [Compound 13711]
Androgen receptor (AR); [3]
  eGFP IC50: Inactive
PSA; [4]
  PSA IC50: Inactive

## Fc1cc(F)c2[nH]cc(-c3ccc4c(Cl)cccc4n3)c2c1 [Compound 13672]
Androgen receptor (AR); [3]
  eGFP IC50: Inactive
PSA; [4]
  PSA IC50: Inactive

## CC1(C)c2ccc(Br)cc2NC1c1c[nH]c2c(OCc3ccccc3)cccc12 (centres unmarked) [13 543]
Androgen receptor (AR); [6]
  IC50: 3700 nM
PSA; [7]
  IC50: 3190 nM

## O=[N+]([O-])c1cccc2nc(-c3c[nH]c4ccccc34)ccc12 [Compound 13689]
Androgen receptor (AR); [3]
  eGFP IC50: Inactive
PSA; [4]
  PSA IC50: Inactive

## CNC(=O)c1cccc2nc(-c3c[nH]c4cc(F)c(F)cc34)ccc12 [Compound 13645]
Androgen receptor (AR); [1]
  IC50: 261 nM
PSA; [2]
  IC50: 247 nM

## Cc1ccc2[nH]cc(C3Nc4ccccc4C3(C)C)c2c1 (centres unmarked) [13 535]
Androgen receptor (AR); [6]
  IC50: 1500 nM
PSA; [7]
  IC50: 1870 nM

## Fc1cc(Cl)c2[nH]cc(-c3ccc4c(F)cccc4n3)c2c1 [Compound 13668]
Androgen receptor (AR); [3]
  eGFP IC50: Inactive
PSA; [4]
  PSA IC50: Inactive

## c1ccc2cc(-c3n[nH]c4ccccc34)ccc2c1 [Compound 13674]
Androgen receptor (AR); [1]
  IC50: 75 nM
PSA; [2]
  IC50: 51 nM

## Fc1ccc2c(-c3ccc4c(C(F)(F)F)cccc4n3)c[nH]c2c1F [Compound 13617]
Androgen receptor (AR); [3]
  eGFP IC50: Inactive
PSA; [4]
  PSA IC50: Inactive

## Cc1ccccc1CSc1c(C)[nH]c2ccccc12 [Compound 13222]
Androgen receptor (AR); [1]
  IC50: 950 nM
PSA; [2]
  IC50: 740 nM

## Cc1[nH]c2ccccc2c1/N=N/c1ccccc1C(F)(F)F [Compound 13424]
Androgen receptor (AR); [1]
  IC50: 3700 nM
PSA; [2]
  IC50: 3580 nM

## Cc1cccc2c(-c3ccc(-c4ccccc4)cc3)c[nH]c12 [13 733]
Androgen receptor (AR); [6]
  IC50: 3810 nM
PSA; [7]
  IC50: 919 nM

## CNC(=O)c1cccc2nc(-c3c[nH]c4c(C)cc(F)cc34)ccc12 [Compound 13710]
Androgen receptor (AR); [1]
  IC50: 230 nM
PSA; [2]
  IC50: 250 nM

## Cc1ccc2nc(-n3ccc4cccc(C)c43)ccc2c1 [Compound 13647]
Androgen receptor (AR); [3]
  eGFP IC50: Inactive
PSA; [4]
  PSA IC50: Inactive

## Cc1cccc2c(-c3ccc4scnc4c3)c[nH]c12 [13 758]
Androgen receptor (AR); [8]
  IC50 (eGFP): IC50 (eGFP) = Inactive
PSA; media after 3 days
  IC50 (PSA): IC50 (PSA) = Inactive

## COc1ccc(Br)cc1-c1c[nH]c2ccccc12 [Compound 13638]
Androgen receptor (AR); [3]
  eGFP IC50: Inactive
PSA; [4]
  PSA IC50: Inactive

## Fc1cc(F)c2[nH]cc(-c3ccc4cccc(F)c4n3)c2c1F [Compound 13752]
Androgen receptor (AR); [1]
  IC50: 370 nM
PSA; [2]
  IC50: 260 nM

## Cc1cccc2c(-c3cnc4ccccc4n3)c[nH]c12 [Compound 13699]
Androgen receptor (AR); [1]
  IC50: 73 nM
PSA; [5]
  IC50: 73 nM

## COc1ccc(Br)cc1-c1c[nH]c2ccccc12 [13 638]
Androgen receptor (AR); [8]
  IC50 (eGFP): IC50 (eGFP) = Inactive
PSA; media after 3 days
  IC50 (PSA): IC50 (PSA) = Inactive

## c1ccc(-c2ccc(-c3c[nH]c4cccnc34)cc2)cc1 [13 735]
Androgen receptor (AR); [6]
  IC50: 3860 nM
PSA; [7]
  IC50: 1430 nM

## Cc1c(F)ccc2c(-c3ccc4c(F)cccc4n3)c[nH]c12 [Compound 13631]
Androgen receptor (AR); [3]
  eGFP IC50: Inactive
PSA; [4]
  PSA IC50: Inactive

## Brc1ccc2c(-c3ccc4ccccc4n3)c[nH]c2c1 [Compound 13568]
Androgen receptor (AR); [1]
  IC50: 1300 nM
PSA; [2]
  IC50: 1560 nM
